From article PMC4168161, “A novel approach for the discovery of chemically diverse anti-malarial compounds targeting the Plasmodium falciparum Coenzyme A synthesis pathway” (Malaria Journal, 2014)

Tests used:
[1] = system: P. falciparum CoA synthesis pathway; assay: Coenzyme A chemical rescue assay on P. falciparum; assay type: cell-based, Plasmodium falciparum; settings: for IC50 shift upon CoA supplementation: eight-point dose response, fixed CoA (0.8-2 mM), n = 2
Procedure: The well-established P. falciparum imaging assay was modified to allow assessment of chemical rescue with CoA. In brief, sorbitol (5% w/v) synchronization was performed twice, approximately 8 hr apart, on each synchronization day for two consecutive ring cycles, i.e., on day 1 and 3 of assay preparation. On day 2 the culture was split to approximately 2% trophozoite parasitaemia. On day 4 the culture was split to 1-1.5% trophozoite parasitaemia, which yielded approximately 8% ring parasitaemia after 48 hr (on day 5, i.e., the day of the assay set-up). Compound stocks (10 mM in 100% DMSO) were diluted 1:25 in sterile water, less than 24 hr prior to use. An additional 1:10 dilution was performed, resulting in a 1:250 overall compound dilution and a final DMSO concentration of 0.4%. For initial screening, compounds were tested at a final 2 μM concentration. […] The known P. falciparum CoA synthesis inhibitor, panthenol, was prepared as a 100 mM solution in 4% DMSO. The final concentration of the dose response curve of panthenol started at 10 mM and was serially diluted down to 100 nM. CoA was dissolved in water. […] Five μl of the 1:25 diluted test compound or control solutions were added to 384-well CellCarrier imaging plates (PerkinElmer). For the chemical rescue, 5 μl of CoA solution were added to ‘rescue’ wells and 5 μl water to all control and reference wells, respectively. Parasite culture was added to a final concentration of 1% parasitaemia (% P) and 0.3% haematocrit (% H). Plates were incubated for 72 hr at 37°C, 5% CO2 and 95% humidity. On day 8 the permeabilization and nuclear staining buffer was prepared in PBS containing 10 μg/ml saponin, 0.01% triton X, 5 mM EDTA (all: Sigma) and 0.5 μg/ml 4′,6-diamidino-2-phenylindole (DAPI; Life Technologies). The plates were left for at least 4 hr (typically overnight), before confocal imaging on an Opera™ High Content Screening Platform (PerkinElmer) at 405 nm excitation with a 20x water objective. Automated primary image analysis was performed concurrent with the imaging process, utilizing an Acapella® software (PerkinElmer) script to determine the number of parasites based on object size and fluorescence intensity. Determination of the % growth compared to controls (2 μM artemisinin as positive and 0.4% DMSO as negative control) was performed in Microsoft® Excel 2010. Statistical analysis including IC50 determination and graphical output was performed in GraphPad Prism® 5 using non-linear regression variable slope curve fitting. Cell-based high throughput screening (HTS) entails the distinct benefit that positive hits have already proven effective against the live parasite within its natural host erythrocyte environment. Modifications of an image-based assay were undertaken to identify compounds that interfere with the P. falciparum CoA pathway. The modification involved a chemical rescue approach adapted from a similar method used to investigate apicoplast function. The principle idea of the chemical rescue approach is that supplementation of an unbranched pathway’s end product – in this case CoA - should abrogate, or at least alleviate, negative growth effects of compounds inhibiting any step in the pathway. […] To identify new potential CoA synthesis inhibitors, the CoA chemical rescue approach was used to screen 144 compounds with known antiplasmodial activity identified by HTS in the Avery laboratory, in addition to the MMV malaria box. […] Compounds which rescued growth to at least 50% of control values and two-fold difference compared to treatment alone, were regarded as partial rescue hits.

3D7 parasites = assay: Time course for parasite stage affected and phenotype (Giemsa smears); assay type: cell-based, Plasmodium falciparum; settings: for parasite stage of action / phenotype: compound at IC80, 0-48 hr
Procedure: The principle of the P. falciparum imaging assay described above was used, with the exception that the parasite synchronization was adjusted to yield parasites synchronized to a 2-hr window as established in-house. In brief, sorbitol synchronization was performed twice (approximately 8 hr apart) on day 1 and only once on day 3 (around 10.00). Schizonts observed on day 4 were left to mature and when rings were first observed, the mature schizonts were isolated using a MACS® column (Miltenyi Biotec). The purified schizonts were incubated for 2 hr at 37°C, 5% CO2 and 5% O2 and 90% N2 on a shaker. The obtained 0-2 hr old ring stage parasites were isolated by removing the remaining schizonts by flow through a MACS® column and the highly synchronized rings obtained were seeded in the assay plates with the compounds as described above. At each time point, one whole columns (16 wells) of identically treated parasites, i.e., 0.4% DMSO as control, compound at its individual IC80 or compound at IC80 plus CoA, were pooled and centrifuged. A smear was made from the pellet and stained with Giemsa (Sigma) for assessment the phenotype of treated parasites with or without supplementation of 0.8 mM CoA in comparison to DMSO controls.
The parasite viability assay used above is an endpoint assay that spans two development cycles of the parasite. To investigate the parasite stage of action of the identified compounds and the phenotype of compound treated parasites, a light microscopy-based time course study was undertaken. The seven compounds of submicromolar activity were added at time point t0 at their respective IC80 concentrations, with and without the addition of 0.8 mM CoA. The 3D7 parasites used in this experiment were age synchronized to within a 2-hr window of the ring stage. Due to assay preparation time, the parasite age at t0 therefore ranged from 0.5 hr to 2.5 hr.
At t0, t18, t24 and t48 parasite cultures for all conditions were centrifuged and Giemsa-stained blood smears were prepared. The 18-hr treatment time point was specifically chosen, since it was expected to see the transition between ring and trophozoite stage in control cultures around this time point (parasite age range 18.5 hr to […]). Therefore any delay in the transition from ring to trophozoite stage under treatment with the compounds was expected to be discernible at this time point.

[2] = compound at ~ IC80, with CoA supplementation
[3] = compound at IC80 plus 0.8 mM CoA
[4] = compound at IC80 plus 0.8 mM CoA, t24
[5] = compound at IC80 plus 0.8 mM CoA, t48
[6] = at 2 μM compound, with CoA supplementation

SMILES	CoA rescue (relative parasite number, % of untreated control) [1, 2] [% rescue at ~ IC80]	IC50 shift upon CoA supplementation [1]	parasite stage of action / phenotype (3D7 parasites)	CoA rescue of stage progression / phenotype (3D7 parasites; [3])	CoA rescue (relative parasite number, % of untreated control) [1, 6] [% rescue at 2 μM]	also measured
Cc1csc(Sc2ncnc3sccc23)n1 [Amb180780]	80	greater than six times	arrest parasite development at the ring stage	rescued very well by CoA addition	–	compound-treated parasites able to progress from the ring to the trophozoite stage (3D7 parasites; compound at IC80): Less than 13%; dead or dying parasites (relative parasitaemia) (3D7 parasites; compound at IC80, t48): 28.6%; dead or dying parasites (relative parasitaemia) (3D7 parasites; [4]): 20%; dead or dying parasites (relative parasitaemia) (3D7 parasites; [5]): control levels
CC(=O)c1ccc2c3c(onc13)-c1ccccc1C2=O [Amb3377585]	50	greater than six times	killing both the ring and the trophozoite stage of the parasite from approximately t24	very good rescue of parasite development, death rates and morphology	–	death rate of parasites (relative parasitaemia) (3D7 parasites; compound at IC80, from t24 onwards): 49%; abnormal trophozoites as share of all counted living trophozoites (3D7 parasites; compound at IC80, t48): 51%; relative parasitaemia of trophozoites showing abnormal morphology (3D7 parasites; compound at IC80, t48): 30.5%
COc1ccc2c(=O)cc(C(Cl)(Cl)Cl)oc2c1 [MMV665820/5534045]	–	greater than six times	main compound action is on the trophozoite stage	CoA addition effectively rescued both parasite development and morphology	80	CoA rescue hit confirmation ([1]; retest): confirmed as a hit; relative parasitaemia of trophozoites showing abnormal morphology (3D7 parasites; compound at IC80, t24): 42.9%; relative parasitaemia of dead or dying trophozoites (3D7 parasites; compound at IC80, t48): 13.8%; relative parasitaemia of trophozoites showing abnormal morphology (3D7 parasites; compound at IC80, t48): 26.6%
CCOc1ccc(Nc2c3ccccc3nc3ccccc23)cc1.Cl [MMV000304/Amb636705]	–	1.5 times	–	–	80	–
CC(C)=NOC(=O)c1c(C)noc1-c1snnc1C [SPB03400]	50	1.5 times	No change in the relative parasitaemia of rings or trophozoites compared to the untreated controls	–	–	ring form parasites showing abnormal morphologies (3D7 parasites; compound at IC80, t48): around 50%
CCc1ccc(Nc2cc(C)c3ccc(O)cc3n2)cc1.Cl [MMV000570/C614-0191]	80	more than doubled	affects both the development of the ring and trophozoite stage of the parasite	Addition of CoA did not alleviate this developmental delay	–	dead or dying parasites (relative parasitaemia) (3D7 parasites; compound at IC80, t24): around 28%; dead or dying parasites (relative parasitaemia) (3D7 parasites; compound at IC80, t48): ~20%; dead or dying parasites (relative parasitaemia) (3D7 parasites; [4]): 13.4%; dead or dying parasites (relative parasitaemia) (3D7 parasites; [5]): 8.3%
CC1=CC(=O)C(C(C)C)=C/C1=N/OS(=O)(=O)c1ccccc1 [STK 740987]	–	greater than six times	no change in the stage composition of rings and trophozoites compared to the controls	–	50	dead or dying parasites (relative parasitaemia) (3D7 parasites; compound at IC80, t24): around 16%
